Measured values as given in patent publication US20150250864A1, “ANTI-CANCER VACCINES” (Board of Regents, The University of Texas System, priority 2012, published 2015).
“Also recorded” adds a separate entry of the source.

test system: sera obtained from cancer patients; assay: ELISA B cell epitope screening of 15-mer peptides with cancer patient sera; type: binding, human; details: single 15-mer peptides of SP8 or SP9
From the text: FIG. 7. Several novel epitopes were detected in BC patients by ELISA in SP8 and SP9, including 94, 108, 91, 88, 89, and 95 from pool 9.
B cell epitopes have been screened by ELISA or flow cytometry using 4D1, 4E6, 4E11, 6H5, 6E11, 5F11mAbs or G11D10 or P 1/P2e (single chain antibodies generated from 6H5 (FIGS. 5-6), or the sera obtained from cancer patients (FIGS. 7-8). Several anti-HERV-K monoclonal antibodies were able to recognize some of these peptides.

| Sequence | B epitope found by ELISA using patient sera |
| --- | --- |
| LNRSKRFIFTLIAVI [15-mer 88] | epitopes were found |
| KRFIFTLIAVIMGLI [15-mer 89] | epitopes were found |
| AVIMGLIAVTATAAV [15-mer 91] | epitopes were found |
| GVALHSSVQSVNFVN [15-mer 95] | epitopes were found |
| AAVAGVALHSSVQSV [15-mer 94] | epitopes were found |
| LMSLEHRFQLQCDWN [15-mer 108] | epitopes were found; also recorded: the only active epitope in each patient's serum |

test system: T cells from HLA A2+ normal donor; assay: IFN-γ ELISPOT, T cells stimulated by 9-mer peptide pool-pulsed homologous B cells; type: cell-based, human; details: T cell stimulated 3 times with peptide pool #12 to 22
From the text: FIGS. 12A-B. Identification of HLA-A2 T-cell specific peptides using anti-human IFN-γ ELISPOT with T cells from one HLA A2^+ normal donor. (FIG. 12A) T cells, stimulated by peptide pool-pulsed homologous B cells three (3rd T cells) or four (4th T cells) times were reactive with two pools from a HERV-K HLA A2^+9-mer peptide library (pool #1-11 and pool #12-22). NP is no peptide control. (FIG. 12B) Photographs of actual plates for FIG. 12A.
FIGS. 13A-B. Identification of HLA-A2 T cell specific epitopes using anti-human IFN-γ ELISPOT. T cells obtained from PBMC stimulated by peptide pool-pulsed homologous B cells three (3rd T cells) or four (4th T cells) times, were reactive with individual peptides. (FIG. 13A) Image of ELISPOT. (FIG. 13B) The code of peptides evaluated in ELISPOT assays.
FIGS. 14A-C. Summary of number of ELISPOTs from each individual peptide. Numbers of spots detected (pool 1-11, pool 12-22, and pool 23-33) in ELISPOTS with a single peptide are shown. NP contains no peptide (as control). (FIG. 14A) Summary of number of ELISPOTs from each individual peptide including #1, #2, #3, #5, #6, #7, #8, and #9, and peptide pool #1 to #11. (FIG. 14B) Summary of number of ELISPOTs from each individual peptide including #12, #13, #14, #15, #17, #18, #19, #20, #22 and peptide pool #12 to #22. (FIG. 14C) Summary of number of ELISPOTs from each individual peptide including #23, #24, #25, #26, #27, #28, #30, #31, #32, #33, and peptide pool #23 to #33. 4th T cells indicated the T cells had been stimulated with peptide pool 4 times and 3rd T cells indicated the T cells had been stimulated with peptide pool 3 times.
The inventor used epitope mapping to identify responses to HERV-K peptides in breast cancer patients. They chemically synthesized a HERV-K env nine amino acid (9mer) peptide library (33 HLA A2 restricted peptides) and overlapping 15mer peptide library (144 peptides). Preliminary research has identified two pools from the HERV-K env 9mer peptide library that contain potential CD8+ epitopes, using interferon gamma (IFN-γ) enzyme-linked immunosorbent spot (ELISPOT) assay with T cells from one HLA A2^+ normal donor which was stimulated with the 9mer peptide pool-pulsed homologous dendritic cells (DCs).
HLA-2+ patients were identified by flow cytometry using anti-A2 antibody. Activated B cells were cultured from PBMCs stimulated with irradiated 3T3-CD40L-expressing fibroblasts. Normal donor CD8+ T-cell lines were obtained from PBMCs stimulated with autologous activated B cells pulsed with peptide pools (peptides are in 3 pools: #1-11, #12-22, and #23-33); the stimulation was repeated for 3-4 cycles. HERV-K specific T cells generated from normal donor lines were tested for peptide reactivity using IFN-γ ELISPOT assays (FIGS. 12A-B).

| Sequence | IFN-γ ELISPOT spots with individual peptide |
| --- | --- |
| TLIAVIMGL [HERVK-15] | numerous spots |
